Legend:
ERα_LBD (GST) = molecular target: T1, ERα_LBD (GST) (Homo sapiens, UniProt P03372); assay: IC50 measurements for binding to ERα_LBD (GST), LanthaScreen TR-FRET ERα competitive binding assay; settings: Fluormone ES2 Green tracer, 60 min, read-out: ERα HTRF IC50
T1 construct: ERα_LBD (GST) protein: 4 nM; purchased ThermoFisher A15887
T1 sequence (P03372 311-547 limits assumed): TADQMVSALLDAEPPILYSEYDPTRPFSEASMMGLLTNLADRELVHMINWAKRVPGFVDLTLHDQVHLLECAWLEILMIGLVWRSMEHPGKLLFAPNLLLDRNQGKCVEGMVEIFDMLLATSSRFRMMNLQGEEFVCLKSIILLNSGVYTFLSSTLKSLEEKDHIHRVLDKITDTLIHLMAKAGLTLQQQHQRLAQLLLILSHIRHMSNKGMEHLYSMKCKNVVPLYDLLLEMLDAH
Experimental: In vitro Assay: IC50 Measurements for binding to ERα_LBD (GST)·
Final assay conditions: • 1. ERα_LBD (GST) protein: 4 nM • 2. Tb Anti-GST: 2 nM • 3. Fluormone ES2 Green tracer: 3 nM • 4. Incubation time: 60 min • 5. DMSO: 1% • 6. Assay buffer: Adding 1M DTT to Nuclear receptor Buffer K for final 5 mM DTT. • 7. ZPE: 1% DMSO • 8. HPE: 1 μM ARV_471 • 9. LanthaScreen® TR-FRET ERα Competitive Binding Assay (ThermoFisher, #A^15887)
100× Compound preparation: • 1) Cherry pick 2 μL 10 mM compound stock to column 1 of a 384 intermediate plate • 2) Add 18 μL DMSO to column 1 to dilute compound to 1 mM. • 3) Transfer 10 μL 1 mM compound to column 1 of a LDV plate. • 2) Add 6 μl DMSO to column 2-10 of the LDV plate. • 3) Compounds undergo 3-fold serial dilution (3 μL+6 μL) in DMSO. • 4) Transfer 120 nL compound solution to assay plate.
Prepare complete nuclear receptor buffer K by adding 1 M DTT to nuclear receptor buffer K for a final concentration of 5 mM DTT. Complete nuclear receptor buffer K must be prepared fresh daily. Prepare 2× protein solution using complete nuclear receptor buffer K containing 8 nM ERα_LBD (GST) and 4 nM Tb Anti-GST. Then, prepare 2× Fluormone ES2 Green tracer (6 nM) using complete nuclear receptor buffer K. Add 6 μL 2× Fluormone ES2 green tracer into a compound plate (PerkinElmer 6008289) by dragonfly with one-tips-addition. Subsequently, add 6 μL 2× protein solution into the plate. Briefly and gently mix the 384-well plate on a plate shaker and incubate at room temperature protected from light for 60 min. The plate is sealed with a cover to minimize evaporation. Read the plate at wavelengths of 520 nm and 495 nm. Calculate the TR-FRET ratio by dividing the emission signal at 520 nm by the emission signal at 495 nm. Generate a binding curve by plotting the emission ratio vs. the log [ligand]. To determine the IC50 value, fit the data using XL-fit for a sigmoidal dose-response.

ER [1] = molecular target: T2, ER (Homo sapiens, UniProt P03372); assay: In-cell Western (ICW) ER degradation assay in T47D cells; format: cell-based; settings: for Dmax: T47D, read-out: ER T47D ICW Dmax (%)
T2 construct: endogenous in cells; probably T47D or MCF-7
T2 sequence (P03372 1-595): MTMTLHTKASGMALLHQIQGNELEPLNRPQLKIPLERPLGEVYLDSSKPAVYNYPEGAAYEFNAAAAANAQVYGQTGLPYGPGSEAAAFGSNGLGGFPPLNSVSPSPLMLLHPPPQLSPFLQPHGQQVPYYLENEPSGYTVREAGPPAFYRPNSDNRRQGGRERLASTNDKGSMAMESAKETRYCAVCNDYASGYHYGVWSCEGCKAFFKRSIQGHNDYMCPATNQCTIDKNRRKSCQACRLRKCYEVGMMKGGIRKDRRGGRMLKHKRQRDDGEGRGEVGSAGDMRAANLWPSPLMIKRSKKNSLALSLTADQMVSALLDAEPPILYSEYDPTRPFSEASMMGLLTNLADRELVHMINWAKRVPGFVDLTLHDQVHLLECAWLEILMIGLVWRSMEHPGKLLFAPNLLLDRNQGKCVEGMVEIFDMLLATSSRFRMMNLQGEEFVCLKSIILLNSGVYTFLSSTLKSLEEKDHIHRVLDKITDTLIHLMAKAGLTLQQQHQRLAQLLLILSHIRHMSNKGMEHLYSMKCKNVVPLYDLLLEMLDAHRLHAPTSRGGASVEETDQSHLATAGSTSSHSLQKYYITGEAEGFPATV

ER [2] = molecular target: T2, ER; assay: In-cell Western (ICW) ER degradation assay in MCF-7 cells; format: cell-based; settings: for Dmax: MCF7, read-out: ER MCF7 ICW Dmax (%); for DC50: read-out: ER MCF7 ICW DC50
T47D cells = assay: CellTiter-Glo (CTG) cell proliferation assay in T47D cells; format: cell-based; settings: Homo sapiens, 144 h, Day 6
Description: (§1) CellTiter-Glo® (CTG) assays in MCF-7 and T47D cell lines.
(§2) In vitro Assay: MCF-7 and T47D CTG assay

MCF-7 cells = assay: CellTiter-Glo (CTG) cell proliferation assay in MCF-7 cells; format: cell-based; settings: Homo sapiens, MCF7, 144 h, Day 6
Description: as §1, §2

CRBN/DDB1 = molecular target: T3, CRBN/DDB1 (Homo sapiens, UniProt Q96SW2); format: binding; settings: HTRF, Cy5-labeled Thalidomide probe
T3 construct: purchased Wuxi RP210521GA
T3 sequence (Q96SW2 whole entry): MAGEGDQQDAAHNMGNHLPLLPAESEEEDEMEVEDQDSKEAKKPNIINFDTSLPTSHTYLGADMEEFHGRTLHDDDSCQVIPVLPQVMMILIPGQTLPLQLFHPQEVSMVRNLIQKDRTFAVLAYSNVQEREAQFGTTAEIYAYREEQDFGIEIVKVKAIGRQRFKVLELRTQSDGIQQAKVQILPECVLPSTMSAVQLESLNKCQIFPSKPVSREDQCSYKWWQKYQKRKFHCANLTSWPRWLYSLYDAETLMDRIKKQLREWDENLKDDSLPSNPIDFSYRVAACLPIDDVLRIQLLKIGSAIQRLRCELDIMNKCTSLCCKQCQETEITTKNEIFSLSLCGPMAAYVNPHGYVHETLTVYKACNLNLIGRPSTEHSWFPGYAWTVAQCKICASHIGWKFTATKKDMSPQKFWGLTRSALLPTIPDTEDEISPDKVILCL
T3 sequence (Q16531 whole entry partner): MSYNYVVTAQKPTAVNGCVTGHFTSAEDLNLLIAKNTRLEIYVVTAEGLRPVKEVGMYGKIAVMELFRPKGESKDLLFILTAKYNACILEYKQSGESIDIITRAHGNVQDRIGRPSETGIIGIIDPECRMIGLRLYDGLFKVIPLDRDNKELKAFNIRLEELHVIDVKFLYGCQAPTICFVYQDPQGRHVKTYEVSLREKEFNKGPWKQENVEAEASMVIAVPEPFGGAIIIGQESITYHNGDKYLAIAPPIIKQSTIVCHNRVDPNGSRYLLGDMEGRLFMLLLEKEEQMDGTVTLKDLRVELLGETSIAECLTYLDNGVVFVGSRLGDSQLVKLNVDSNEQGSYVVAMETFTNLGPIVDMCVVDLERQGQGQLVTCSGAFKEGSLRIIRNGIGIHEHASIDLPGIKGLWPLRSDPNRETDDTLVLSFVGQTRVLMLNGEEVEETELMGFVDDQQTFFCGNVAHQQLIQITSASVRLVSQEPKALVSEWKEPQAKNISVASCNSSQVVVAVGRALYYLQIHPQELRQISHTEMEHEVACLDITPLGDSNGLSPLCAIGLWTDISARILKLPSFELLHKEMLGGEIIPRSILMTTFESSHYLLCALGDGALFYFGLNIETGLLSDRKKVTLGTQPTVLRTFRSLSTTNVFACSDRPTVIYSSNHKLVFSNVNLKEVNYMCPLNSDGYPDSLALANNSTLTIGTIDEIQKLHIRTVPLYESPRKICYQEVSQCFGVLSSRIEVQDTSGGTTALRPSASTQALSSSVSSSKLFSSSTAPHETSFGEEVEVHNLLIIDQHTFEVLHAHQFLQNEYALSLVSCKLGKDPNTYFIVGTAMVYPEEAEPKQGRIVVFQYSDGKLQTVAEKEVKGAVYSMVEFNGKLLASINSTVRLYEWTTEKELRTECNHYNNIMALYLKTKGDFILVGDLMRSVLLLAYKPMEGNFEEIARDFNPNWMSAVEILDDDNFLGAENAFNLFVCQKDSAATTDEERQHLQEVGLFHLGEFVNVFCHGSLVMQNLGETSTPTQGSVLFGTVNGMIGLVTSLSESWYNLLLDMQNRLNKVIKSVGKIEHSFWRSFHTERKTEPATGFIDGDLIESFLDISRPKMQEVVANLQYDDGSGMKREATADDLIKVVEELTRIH
Experimental: The binding potency was determined using HTRF assay technology (Perkin Elmer). Compounds were serially diluted in DMSO and 0.2 μL volume was transferred to white 384-well plate.

In the case of C[C@@H]1Cc2c(ccc3[nH]ncc23)[C@H](c2ccc(N3CCC4(CC3)CC(CN3CCN5c6ccc7c(c6OC[C@H]5C3)CN([C@H]3CCC(=O)NC3=O)C7=O)CO4)nc2)N1CC(F)(F)F (stereo partly drawn) [Compound A21, (3S)-3-((5aR)-7-((8-(5-((6R,8R)-8-methyl-7-(2,2,2-trifluoroethyl)-6,7,8,9-tetrahydro-3H-pyrazolo[4,3-f]isoquinolin-6-yl)pyridin-2-yl)-1-oxa-8-azaspiro[4.5]decan-3-yl)methyl)-1-oxo-1,3,5,5a,6,7,8,9-octahydro-2H-pyrazino[1′,2′: 4,5][1,4]oxazino[2,3-e]isoindol-2-yl)piperidine-2,6-dione], the IC50 (ERα_LBD (GST)) is reported as under 0.01 µM, the DC50 (ER [1]; T47D cells, 16 hrs) is reported as under 0.001 µM and the Dmax (ER [1]; T47D cells, 16 hrs) is reported as over 75%. The Dmax (ER [2]) was over 75%, the DC50 (ER [2]; MCF-7 cells, 16 hrs) was under 0.001 µM and the IC50 (T47D cells) was 0.01 to 0.05 µM. It also gave an IC50 (MCF-7 cells) of under 0.01 µM.
C[C@@H]1Cc2c(ccc3[nH]ncc23)[C@@H](c2ccc(N3CC4(CCC(CN5CCN6c7ccc8c(c7OC[C@H]6C5)CN([C@H]5CCC(=O)NC5=O)C8=O)CC4)C3)nc2)N1CC(F)(F)F [Compound A17, (S)-3-((R)-7-((2-(5-((6S,8R)-8-methyl-7-(2,2,2-trifluoroethyl)-6,7,8,9-tetrahydro-3H-pyrazolo[4,3-f]isoquinolin-6-yl)pyridin-2-yl)-2-azaspiro[3.5]nonan-7-yl)methyl)-1-oxo-1,3,5,5a,6,7,8,9-octahydro-2H-pyrazino[1′,2′: 4,5][1,4]oxazino[2,3-e]isoindol-2-yl)piperidine-2,6-dione] was tested, and the IC50 (ERα_LBD (GST)) was under 0.01 µM, the DC50 (ER [1]; T47D cells, 16 hrs) was under 0.001 µM and the Dmax (ER [1]; T47D cells, 16 hrs) was over 75%. For the same compound, the Dmax (ER [2]) was over 75%, the DC50 (ER [2]; MCF-7 cells, 16 hrs) was under 0.001 µM and the IC50 (T47D cells) was 0.01 to 0.05 µM. It also gave an IC50 (MCF-7 cells) of over 0.05 µM.
Work on C[C@@H]1Cc2c(ccc3[nH]ncc23)[C@@H](c2ccc(N3CCC(CN4CCN5c6cc7c(cc6OC[C@@H]5C4)C(=O)N([C@H]4CCC(=O)NC4=O)C7)CC3)nc2)N1CC(F)(F)F [Compound A24, (S)-3-((S)-3-((1-(5-((6S,8R)-8-methyl-7-(2,2,2-trifluoroethyl)-6,7,8,9-tetrahydro-3H-pyrazolo[4,3-f]isoquinolin-6-yl)pyridin-2-yl)piperidin-4-yl)methyl)-8-oxo-1,2,3,4,4a,5,8,10-octahydro-9H-pyrazino[1′,2′: 4,5][1,4]oxazino[2,3-f]isoindol-9-yl)piperidine-2,6-dione] yielded an IC50 (ERα_LBD (GST)) of under 0.01 µM, a DC50 (ER [1]; T47D cells, 16 hrs) of under 0.001 µM and a Dmax (ER [1]) of over 75%. For the same compound, the Dmax (ER [2]) was 50 to 75%, the DC50 (ER [2]; MCF-7 cells, 16 hrs) was under 0.001 µM and the IC50 (T47D cells) was over 0.05 µM. It also gave an IC50 (MCF-7 cells) of over 0.05 µM.
COc1cc(N2CCC(CN3CCN4c5ccc6c(c5OC[C@H]4C3)CN(C3CCC(=O)NC3=O)C6=O)CC2)ccc1[C@@H]1c2ccc3[nH]ncc3c2C[C@@H](C)N1CC(F)F (stereo partly drawn) [Compound A6, 3-((R)-7-((1-(4-((6S,8R)-7-(2,2-difluoroethyl)-8-methyl-6,7,8,9-tetrahydro-3H-pyrazolo[4,3-f]isoquinolin-6-yl)-3-methoxyphenyl)piperidin-4-yl)methyl)-1-oxo-1,3,5,5a,6,7,8,9-octahydro-2H-pyrazino[1′,2′:4,5][1,4]oxazino[2,3-e]isoindol-2-yl)piperidine-2,6-dione] was tested, and the DC50 (ER [1]; T47D cells, 16 hrs) was under 0.001 µM, the “ER T47D ICW Dmax (%)” value (ER [1]; T47D cells, 16 hrs) was “B (“B”: >50% and <75%)” and the IC50 (CRBN/DDB1) was 0.05 to 0.5 µM. For the same compound, the “ER MCF7 ICW Dmax (%)” value (ER [2]; MCF-7 cells, 16 hrs) was “B (“B”: >50% and <75%)”, the DC50 (ER [2]; MCF-7 cells, 16 hrs) was under 0.001 µM and the IC50 (T47D cells) was under 0.01 µM. It also gave an IC50 (MCF-7 cells) of under 0.01 µM.
For C[C@@H]1Cc2c(ccc3[nH]ncc23)[C@H](c2ccc(N3CCC(CN4CCN5c6ccc7c(c6OC[C@H]5C4)CN([C@H]4CCC(=O)NC4=O)C7=O)CC3)nc2)N1CC(F)(F)F [Compound A19, (S)-3-((R)-7-((1-(5-((6R,8R)-8-methyl-7-(2,2,2-trifluoroethyl)-6,7,8,9-tetrahydro-3H-pyrazolo[4,3-f]isoquinolin-6-yl)pyridin-2-yl)piperidin-4-yl)methyl)-1-oxo-1,3,5,5a,6,7,8,9-octahydro-2H-pyrazino[1′,2′: 4,5][1,4]oxazino[2,3-e]isoindol-2-yl)piperidine-2,6-dione], the IC50 (ERα_LBD (GST)) was under 0.01 µM, the DC50 (ER [1]; T47D cells, 16 hrs) was under 0.001 µM and the Dmax (ER [1]; T47D cells, 16 hrs) was 50 to 75%. It also gave a Dmax (ER [2]) of 50 to 75%, a DC50 (ER [2]; MCF-7 cells, 16 hrs) of under 0.001 µM and an IC50 (T47D cells) of under 0.01 µM. The IC50 (MCF-7 cells) was under 0.01 µM.
In the case of C[C@@H]1Cc2c(ccc3[nH]ncc23)C(c2ccc(N3CCC4(CC3)CC(CN3CCN5c6ccc7c(c6OC[C@H]5C3)CN([C@H]3CCC(=O)NC3=O)C7=O)C4)nc2)N1CC(F)(F)F (stereo in doubt) [Compound A26, (S)-3-((R)-7-((7-(5-((6R,8R)-8-methyl-7-(2,2,2-trifluoroethyl)-6,7,8,9-tetrahydro-3H-pyrazolo[4,3-f]isoquinolin-6-yl)pyridin-2-yl)-7-azaspiro[3.5]nonan-2-yl)methyl)-1-oxo-1,3,5,5a,6,7,8,9-octahydro-2H-pyrazino[1′,2′: 4,5][1,4]oxazino[2,3-e]isoindol-2-yl)piperidine-2,6-dione], the IC50 (ERα_LBD (GST)) is reported as under 0.01 µM, the DC50 (ER [1]; T47D cells, 16 hrs) is reported as under 0.001 µM and the Dmax (ER [1]; T47D cells, 16 hrs) is reported as over 75%. The Dmax (ER [2]) was over 75%, the DC50 (ER [2]; MCF-7 cells, 16 hrs) was under 0.001 µM and the IC50 (T47D cells) was 0.01 to 0.05 µM. For the same compound, the IC50 (MCF-7 cells) was 0.01 to 0.05 µM.
